Data reported in patent US12269816B2, “Benzothiophene compound, preparation method therefor and use thereof” (SICHUAN KELUN-BIOTECH BIOPHARMACEUTICAL CO., LTD., priority 2019, dated 2025).

Tested on: MC38 mouse colon cancer allograft tumor model
Test: In vivo efficacy in the MC38 mouse colon cancer allograft tumor model
Settings: 10 μg i.t.; for Tumor Volume, Day 0, Dosing side / Tumor Volume, Day 0, Non-dosing side: baseline at start of dosing; for Tumor Volume, Day 0, Dosing side / Tumor Volume, Day 0, Non-dosing side / Tumor Volume, Day 18, Dosing side / Tumor Volume, Day 18, Non-dosing side: mean ± SEM, n = 8; for Tumor Volume, Day 0, Dosing side / Tumor Volume, Day 0, Non-dosing side / Tumor Volume, Day 18, Dosing side / TGIvolume, Day 18, Dosing side: BIW×2; for Tumor Volume, Day 18, Non-dosing side / TGIvolume, Day 18, Non-dosing side: BIW×2 on the other side; for TGIvolume, Day 18, Dosing side / TGIvolume, Day 18, Non-dosing side: tumor volume inhibitory rate
Method: In this experimental example, the changes in tumor volume and tumor weight of an MC38 mouse colon cancer transplanted tumor model were measured and recorded after intratumoral injection (i.t.) of compound 6 or compound 8, so as to test the efficacy of each test compound.
Experimental cell strain: Mouse colon cancer MC38 cells (Nanjing Cobioer) were cultured in a 37° C., 5% CO2 incubator (medium: RPMI-1640 (Hyclone) containing 10% fetal bovine serum (Gibco)). Trypsin-EDTA (Hyclone) was used for routine digestion and passage. When the cells were in the exponential phase with a saturation of […], the cells were collected and counted.
Experimental animals: C57BL/6J mice, 6-8 weeks old, female, weighing 18-20 grams. All mice were purchased from Beijing Vital River Laboratory Animal Technology Co., Ltd., and kept in a special pathogen-free (SPF) animal room.
The MC38 cells were resuspended in phosphate buffered saline (PBS) at a density of 5×10^6 cells/mL. 0.1 mL of PBS (containing 5×10^5 MC38 cells) was inoculated subcutaneously at the position of scapula at the right and left back of each mouse. When the average volume of the tumors at the left and right sides reached about 100 mm^3, the mice were randomly grouped according to the volumes of the tumors at the left and right sides.
When the average volume of the subcutaneously transplanted tumors reached about 100 mm^3, the mice were randomly grouped according to the volume of the tumors at the left and right sides, with 8 in each group. Administration was performed on the tumors at the right side via intratumoral injection at an administration frequency of BIW×2 for 2 weeks in total, while no administration was performed on the tumors at the left side. After administration, the volumes of tumors at the left and right sides were measured twice a week, and the death of the animals was observed every day.
The anti-tumor efficacy of the test compound was evaluated by the tumor volume inhibitory rate TGIvolume (%). The tumor volume was measured with a vernier caliper. The tumor volume is calculated according to the formula: V=0.5×a×b^2, wherein “a” and “b” represent the long diameter and short diameter of the tumor, respectively. The tumor volume inhibitory rate TGIvolume (%)=[(1−(the average tumor volume at the end of dosing to a dosing group−the average tumor volume at the start of dosing to the dosing group)/(the average tumor volume at the end of dosing to a vehicle control group−the average tumor volume at the start of dosing to the vehicle control group)]×100%. When the tumor volume at the end of dosing was smaller than the tumor volume at the start of dosing (i.e., tumor regression), TGIvolume (%)=[1−(the average tumor volume at the end of dosing to a dosing group−average the tumor volume at the start of dosing to the dosing group)/the average tumor volume at the start of dosing to the dosing group]×100%.
A statistical analysis was performed based on the tumor volume at the end of the experiment using the Graphpad Prism software. A comparison between the two groups was analyzed by Student's t-test. When P<0.05, it was considered as having a significant difference.

## COc1cc2sc(C(=O)CCC(=O)O)cc2cc1OCCCOc1cc2cc(C(=O)N(C)CCC(=O)O)sc2cc1OC [Compound 8, 4-(5-(3-((2-((2-carboxyethyl)(methyl)carbamoyl)-6-methoxybenzo[b]thiophen-5-yl)oxy)propoxy)-6-methoxybenzo[b]thiophen-2-yl)-4-oxobutanoic Acid]
  Tumor Volume, Day 0, Dosing side: 113.24 ± 12.33 mm^3
  Tumor Volume, Day 0, Non-dosing side: 96.60 ± 11.50 mm^3
  Tumor Volume, Day 18, Dosing side: 0.00 ± 0.00 mm^3
  Tumor Volume, Day 18, Non-dosing side: 666.08 ± 100.92 mm^3
  TGIvolume, Day 18, Dosing side: 200.00%
  TGIvolume, Day 18, Non-dosing side: 58.09%

## COc1cc2sc(C(=O)CCC(=O)O)cc2cc1OCCCOc1cc2sc(C(=O)N(C)CCC(=O)O)cc2cc1OC [Compound 6, 4-(5-(3-((2-((2-carboxyethyl)(methyl)carbamoyl)-5-methoxybenzo[b]thiophen-6-yl)oxy)propoxy)-6-methoxybenzo[b]thiophen-2-yl)-4-oxobutanoic acid]
  Tumor Volume, Day 0, Dosing side: 112.09 ± 11.95 mm^3
  Tumor Volume, Day 0, Non-dosing side: 96.07 ± 10.17 mm^3
  Tumor Volume, Day 18, Dosing side: 105.10 ± 74.74 mm^3
  Tumor Volume, Day 18, Non-dosing side: 760.69 ± 174.22 mm^3
  TGIvolume, Day 18, Dosing side: 106.24%
  TGIvolume, Day 18, Non-dosing side: 51.09%
